Test results as given in patent US6017934A, “Thrombin inhibitors” (Merck & Co., Inc., priority 1998, dated 2000).
Residues, ends and D or L forms follow the SMILES beside them.

Tests used:
Assay type in all cases: biochemical
[1] = biological target: T1, human a-thrombin (Homo sapiens, UniProt P00734); assay: In vitro thrombin inhibition (Ki); details: 25° C., 0.05 M TRIS pH 7.4, 0.15 M NaCl, 0.1% PEG; read-out: trombin Ki
Method: (§1) Assays of human a-thrombin and human trypsin were performed at 25° C. in 0.05 M TRIS buffer pH 7.4, 0.15 M NaCl, 0.1% PEG. Trypsin assays also contained 1 mM CaCl2.
(§2) Concentrations of stock solutions of Z-GPR-afc were determined from measurements of absorbance at 380 nm of the 7-amino-4-trifluoromethyl coumarin produced upon complete hydrolysis of an aliquot of the stock solution by thrombin.
Times required to achieve equilibration between enzyme and inhibitor were determined in control experiments. Initial velocities of product formation in the absence (Vo) or presence of inhibitor (Vi) were measured. Assuming competitive inhibition, and that unity is negligible compared Km /[S], […] (where [S], [I], and e respectively represent the total concentrations, of substrate, inhibitor and enzyme), the equilibrium constant (Ki) for dissociation of the inhibitor from the enzyme can be obtained from the dependence of Vo /Vi on [I] shown in equation 1.

[2] = system: human trypsin; assay: Rate of hydrolysis of p-nitroanilide substrate by trypsin; details: 405 nm, 1 mM CaCl2
Method: as §1

[3] = biological target: T1, human a-thrombin; assay: Thrombin catalyzed hydrolysis of fluorogenic substrate; details: 500 nm (excitation 400 nm)
Method: as §1, §2

Row | Ki [1] [nM] | Compound | other results
1 | > 10 | Cc1nc(N)ccc1CNC(=O)Cn1c(C)cc(Sc2ccccc2)c(NS(C)(=O)=O)c1=O | –
2 | < 10 | Cc1cc(Sc2ccccc2)c(N)c(=O)n1CC(=O)NCc1cc(Cl)ccc1OCC(=O)NC1CC1 | –
3 | – | CNCC(=O)N1CCC[C@H]1C(=O)N[C@@H](CCCNC(=N)N)C(=O)Nc1ccc([N+](=O)[O-])cc1 [sar-PR-pna, sarcosine-Pro-Arg-p-nitroanilide] (HELM PEPTIDE1{[Sar].P.R.[O=[N+]([O-])c1ccc(N[*:1])cc1]}$$$$V2.0) | Km [2]: 59 µM
4 | – | N=C(N)NCCC[C@H](NC(=O)[C@@H]1CCCN1C(=O)CNC(=O)OCc1ccccc1)C(=O)Nc1ccc2c(C(F)(F)F)cc(=O)oc2c1 [Z-GPR-afc, Cbz-Gly-Pro-Arg-7-amino-4-trifluoromethylcoumarin] (HELM PEPTIDE1{[O=C(OCc1ccccc1)[*:2]].G.P.R.[O=c1cc(C(F)(F)F)c2ccc(N[*:1])cc2o1]}$$$$V2.0) | Km [3]: 27 µM
